For orientation: melting point means the temperature of the solid-liquid transition.

As to `CC(C)N1CCN(CCN2CCC(c3cn(-c4ccc(F)cc4)c4cc(Cl)ccc34)CC2)C1=O`, the melting point is 134 °C. Next, `N#CCCN(CCC#N)CC(=O)O`: 73 °C. The result for `CC(C)(C)c1ccc2c3c(c(=O)oc2c1)CNCC3` reads 181 to 186 °C. Next, `CC(C)C(C(=O)OCc1nn(Cc2ccccc2)c(=O)o1)c1ccc(Cl)cc1` (stereo not given): 70 °C; `Cc1ccc2c(c1)OCc1nc(C(=O)O)cn1-2`: 278 to 279 °C; `CCOC(=O)c1cn(CC)c2nc(N3CCN(CC)CC3)ncc2c1=O`: 161 °C. `Cc1c(Cl)cccc1S(=O)(=O)Nc1ccc2c(c1)nc(C)n2C` gave a melting point of 283 to 284 °C. The result for `CNC(=O)CCCC1CCN(Cc2cnc3cc(NC(=O)c4ccc(-c5ccc(F)cc5)cc4)c(C)cc3c2)CC1` reads 223 °C.

In turn, `COc1ccc(N2CCN(c3c(C)c4c(c(OC)c3C)OC(C)C4)CC2)cc1` (stereo not given) gave a melting point of 109 to 111 °C. Consider `Cc1c(-c2ccc(OS(=O)(=O)NN(C)C)cc2)[nH]c2nccnc12`, for which the melting point is 188 °C. The result for `CCOc1ccc([N+](=O)[O-])c(NCCN2CCOCC2)c1` reads 107 °C.

As to `Cc1[nH]c2ccc(C(=O)c3ccccc3)cc2c1C=O`, the melting point lay in the range of 227 to 230 °C. `Cn1cc(-c2ccccc2)c(=S)c(-c2ccccc2)n1` displayed a melting point of 122 to 123 °C. The result for `O=C(O)CCCNc1ccccc1CNC(=O)C1Cc2ccccc2N1S(=O)(=O)c1ccc(-c2cccc(C(F)(F)F)c2)cc1` (stereo not given) reads 77 to 81 °C; that for `COc1ccc2c(O)c(-c3ccccc3OC)c(=O)[nH]c2c1`, above 300 °C; that for `CSc1ccc2ccc(N3C(=O)c4ccccc4C3O)nc2n1` (stereo not given), 210 °C.

For `CCOC(=O)[C@@H]1C[C@@H](O)CN1S(C)(=O)=O`, the melting point was in the range of 111 to 113 °C. The compound `O=C(c1oc2ccc(N3CCN(Cc4ccccc4)CC3)cc2c1Br)N(Cc1ccccc1)Cc1ccccc1` displayed a melting point of 196 to 198 °C. For the compound `C=CCC(O)CCCCCCCCCOc1ccccc1` (stereo not given), the melting point was 50 to 52 °C. Next, `COc1cc(CCCC2OC(=O)NC2=O)ccc1OCc1coc(CCc2ccccc2)n1` (stereo not given): 122 to 123 °C; `CSc1ccc(-n2c(-c3cccnc3)nc(SC)c(C#N)c2=O)cc1`: 212 to 215 °C. Next, `O=C(NCCO)c1cc(-c2cccc3cc(Cc4cccc(C(F)(F)F)c4)sc23)ncc1F`: 110 to 111 °C. Next, `NS(=O)(=O)c1ccc(C2CCCC2)cc1`: 158 °C; `O=c1cc(COC2CCCCO2)occ1OCCCCBr` (stereo not given): 71.5 °C; `CCCCCCN1C(=O)C(=CC(=O)O)SC1=Nc1ccccc1`: 145 to 146 °C. Take `N#Cc1cc(C#N)cc(Oc2cccc(Oc3cc(C#N)cc(C#N)c3)c2)c1`: the melting point was 212 to 213 °C. Next, `Cc1nc(S(=O)(=O)CC(=O)OCc2cccs2)nc(C)c1Br`: 87 to 88 °C.

`COC(=O)/C(=C/C=C/c1cc2ccccc2n1C)OC` returned a melting point of 93 to 94 °C.

With `CCCNC(=O)N(C)Cc1cccc2c1C(=O)N(C1CCC(=O)NC1=O)C2=O` (stereo not given), the melting point lay within 210 to 212 °C. In turn, `COC(=O)c1ccccc1C1=NC(C)(C(C)C)C(=O)N1` (stereo not given) gave a melting point of 113 to 114 °C. Next, `COc1ccc(/C=C/C(=O)Nc2ccc(Br)cc2C(=O)O)cc1OC`: 210 to 213 °C; `O=C1c2ccccc2C(=O)N1CCCCc1ccc(S(=O)(=O)Cl)cc1`: 122 to 125 °C; `Cc1cc(-n2ccnc2)c2cccc(OCc3c(Cl)ccc(S(=O)(=O)N4CCC[C@H]4C(=O)N(C)CCN(C)CCCCO)c3Cl)c2n1`: 84 °C. Next, `O=C1CCCn2c1cc1ccccc12`: 138 to 140 °C; `O=[N+]([O-])c1ccc(F)cc1CS(=O)(=O)c1ccccc1`: 169 to 171 °C.

(Values after a melting point compilation (Tetko et al.; mined from patent text by program, amines drawn as free bases though some values may be those of a salt).)
